“Also recorded” adds a separate entry of the source. Like-named read-outs stand apart in the source and are kept apart here.
Tests used:
[1] = Cytotoxicity assay (resazurin); format: cell-based; settings: human, MRC-5 cells
Procedure: (§1) The integrated panel of microbial screens and standard screening methodologies were adopted as previously described. All assays were performed in triplicate, at the Laboratory of Microbiology, Parasitology and Hygiene at the University of Antwerp, Belgium. […] The selectivity antiprotozoal potential was assessed by simultaneous evaluation of cytotoxicity on a fibroblast (MRC-5) cell line.
For the assay, 10^4 MRC-5 cells/well were seeded onto the test plates containing the pre-diluted sample and incubated at 37 °C and 5% CO2 for 72 h. Cell viability was assessed fluorimetrically after 4 h of addition of resazurin. Fluorescence was measured (excitation 550 nm, emission 590 nm) and the results were expressed as % reduction in cell viability compared to control.

[2] = system: T. cruzi Tulahuen CL2 (benznidazole-sensitive); test: Antitrypanosomal activity (Chagas), β-galactosidase readout on MRC-5 cells; format: cell-based, Trypanosoma cruzi; settings: for IC50: Trypanosoma cruzi, MRC5, 168 h, read-out: T. cruzi IC50
Procedure: as §1
(§2) About 1.5 × 10^4 trypomastigotes/well were added to each well and parasite growth was assessed after 72 h at 37 °C by adding resazurin [30]. […] The color reaction was read at 540 nm after 4 h and absorbance values were expressed as a percentage of the blank controls.

[3] = system: L.infantum MHOM/MA(BE)/67 amastigotes; test: Antileishmanial activity, intracellular amastigotes in primary peritoneal mouse macrophages; format: cell-based, Leishmania infantum; settings: for IC50: Leishmania infantum, Macrophage, 120 h, read-out: L. infantum IC50
Procedure: as §1
L.infantum MHOM/MA(BE)/67 amastigotes were collected from the spleen of an infected donor hamster and used to infect primary peritoneal mouse macrophages. To determine in vitro antileishmanial activity, 3 × 10^4 macrophages were seeded in each well of a 96-well plate. After 2 days outgrowth, 5 × 10^5 amastigotes/well were added and incubated for 2 h at 37 °C. Pre-diluted plant extracts were subsequently added and the plates were further incubated for 5 days at 37 °C and 5% CO2. Parasite burdens (mean number of amastigotes/macrophage) were microscopically assessed after Giemsa staining, and expressed as a percentage of the blank controls without plant extract.

[4] = system: Trypanosoma brucei Squib-427 strain (suramin-sensitive) trypomastigotes; test: Antitrypanosomal activity, resazurin readout; format: cell-based; settings: for IC50: Trypanosoma brucei, 72 h, read-out: T. brucei IC50; for T. brucei SI (selectivity index): versus MRC-5 cytotoxicity
Procedure: as §1, §2

[5] = system: Chloroquine-resistant P. falciparum 2/K 1-strain (erythrocytic schizonts); test: Antiplasmodial activity (Malstat method); format: cell-based, Plasmodium falciparum; settings: for IC50: Plasmodium falciparum, 72 h, read-out: P. falciparum IC50
Procedure: as §1
Chloroquine-resistant P. falciparum 2/K 1-strain was cultured in human erythrocytes O^+ at 37 °C under a low oxygen atmosphere (3% O2, 4% CO2, and 93% N2) in RPMI-1640, supplemented with 10% human serum. Infected human red blood cells (200 μL, 1% parasitaemia, 2% haematocrit) were added to each well and incubated for 72 h. After incubation, test plates were frozen at −20 °C. Parasite multiplication was measured by the Malstat method.

[6] = system: all protozoa species (P. falciparum, L. infantum, T. cruzi, T. brucei); test: Antiprotozoal activity, statement pooled over all protozoa species tested; format: cell-based; settings: for IC50: pooled over P. falciparum, L. infantum, T. cruzi, T. brucei, read-out: IC50 against all protozoa species
Procedure: as §1

[7] = MRC-5 SV2 cells (fibroblast cell line)
[8] = Tulahuen CL2 on MRC-5 cells, 7 days
[9] = intracellular amastigotes in mouse macrophages, 5 days
[10] = chloroquine-resistant 2/K 1-strain

Row | SMILES | IC50 at 72 h [1, 7] | IC50 [2, 8] | IC50 [3, 9] | IC50 [5, 10] | IC50 ([4]; Squib-427 trypomastigotes) | IC50 [6] | further results
1 | CC/C(=C(\c1ccccc1)c1ccc(OCCN(C)C)cc1)c1ccccc1 [Tamoxifen, reference compound] | 10.5 ± 2.5 µM |  |  |  |  |  | 
2 | O=C(Cn1ccnc1[N+](=O)[O-])NCc1ccccc1 [Benznidazole, reference compound] |  | 2.5 ± 0.6 µM |  |  |  |  | 
3 | CCCCCCCCCCCCCCCCOP(=O)([O-])OCC[N+](C)(C)C [Miltefosine, reference compound] |  |  | 2.4 ± 0.8 µM |  |  |  | 
4 | Nc1nc(N)nc(Nc2ccc([As]3SCC(CO)S3)cc2)n1 (stereo not shown) [Melarsoprol, reference compound] |  |  |  |  |  |  | IC50 [4]: 0.005 ± 0.001 µM
5 | CC(C)C1=CC2=CC(=O)[C@H]3C(C)(C)CCC[C@]3(C)C2=C(O)C1=O [Compound (3), taxodione] | 22.6 ± 1.3 µM | 25.7 ± 2.3 µM | 25.7 ± 2.3 µM | 8.5 ± 0.7 µM | 9.8 ± 0.7 µM | 6 to 31.6 µM | P. falciparum SI (selectivity index) ([5]; versus MRC-5 cytotoxicity): 2.6; T. brucei SI (selectivity index) [4]: 2.3
6 | CC(C)c1cc2c(c(O)c1O)C13CCCC(C)(C)C1C(O)C2OC3 (stereo not drawn) [Compound (5), 6α,11,12,-trihydroxy-7β,20-epoxy-8,11,13-abietatriene] | 5.7 ± 0.9 µM | 24.4 ± 3.2 µM | 24.4 ± 3.2 µM | 31.6 ± 1.9 µM | 15.9 ± 1.4 µM | 6 to 31.6 µM | 
7 | CC(C)C1=CC2=C(O)C(O)=C3C(C)(C)CCC[C@]3(C)C2=C(O)C1=O [Compound (2), 5,6-didehydro-7-hydroxy-taxodone] | 96.2 ± 5.8 µM |  |  |  | 1.9 ± 0.4 µM |  | IC50 [5]: 9.2 ± 0.6 µM; IC50 [3]: 25.7 ± 1.5 µM; IC50 ([2]; TULAHUEN): 25.7 ± 1.5 µM
8 | CC(C)c1cc2c(c(O)c1O)C13CCCC(C)(C)C1CC2OC3 (stereo not shown) [Compound (4), 20-deoxocarnosol] |  | 25.6 ± 1.2 µM | 25.6 ± 1.2 µM | 11.1 ± 0.6 µM | 6 ± 0.8 µM | 6 to 31.6 µM | IC50 at 72 h [1]: 6 ± 0.3 µM
9 | CCN(CC)CCCC(C)Nc1ccnc2cc(Cl)ccc12 (stereo not shown) [Chloroquine, reference compound] |  |  |  |  |  |  | IC50 [5]: 0.04 ± 0.01 µM
10 | CC(C)c1ccc2c(c1)CC[C@H]1C(C)(C)CCC[C@]21C [Compound (1), dehydroabietane] | > 237 µM | > 237 µM | > 237 µM | 124 ± 4.7 µM | > 237 µM | > 100 µM | L. infantum SI (selectivity index) ([3]; versus MRC-5 cytotoxicity): > 1; T. cruzi SI (selectivity index) ([2]; versus MRC-5 cytotoxicity): >1; T. brucei SI (selectivity index) [4]: >1; antiprotozoal activity (in words) ([6]; overall verdict over all protozoa tested): no activity against all protozoal strains; also recorded: no antiprotozoal potential
